{"source": "ChEMBL document CHEMBL1201862", "about": "“PubChem BioAssay data set” (2004)", "key": {"[1]": {"biological_target": "Beta-adrenergic receptor kinase 1 (Homo sapiens, UniProt P25098)", "sequence (P25098 whole entry)": "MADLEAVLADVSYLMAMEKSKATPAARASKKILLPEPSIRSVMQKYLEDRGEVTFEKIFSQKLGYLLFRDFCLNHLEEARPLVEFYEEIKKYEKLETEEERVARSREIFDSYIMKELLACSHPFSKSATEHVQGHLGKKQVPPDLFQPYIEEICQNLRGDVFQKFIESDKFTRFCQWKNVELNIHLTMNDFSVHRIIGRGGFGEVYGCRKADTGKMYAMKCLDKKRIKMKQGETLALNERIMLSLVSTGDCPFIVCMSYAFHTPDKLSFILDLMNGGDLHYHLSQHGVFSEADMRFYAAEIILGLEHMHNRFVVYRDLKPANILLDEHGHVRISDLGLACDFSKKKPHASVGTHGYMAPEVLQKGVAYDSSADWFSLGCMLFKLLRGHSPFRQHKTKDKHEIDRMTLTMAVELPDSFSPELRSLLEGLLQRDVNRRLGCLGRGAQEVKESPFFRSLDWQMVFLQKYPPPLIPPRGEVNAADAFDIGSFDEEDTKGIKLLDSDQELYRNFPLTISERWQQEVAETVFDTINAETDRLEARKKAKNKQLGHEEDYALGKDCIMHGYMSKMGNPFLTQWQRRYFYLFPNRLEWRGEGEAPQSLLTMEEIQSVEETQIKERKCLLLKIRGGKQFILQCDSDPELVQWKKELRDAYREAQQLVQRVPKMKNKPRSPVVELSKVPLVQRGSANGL", "experiment": "blockers of aptamer binding to GRK2 – biochemical, flow cytometry beads, FAM-aptamer, powder set 1, dose response (AID 588720)"}, "[2]": {"biological_target": "Sphingosine 1-phosphate receptor 1 (Homo sapiens, UniProt P21453)", "sequence (P21453 whole entry)": "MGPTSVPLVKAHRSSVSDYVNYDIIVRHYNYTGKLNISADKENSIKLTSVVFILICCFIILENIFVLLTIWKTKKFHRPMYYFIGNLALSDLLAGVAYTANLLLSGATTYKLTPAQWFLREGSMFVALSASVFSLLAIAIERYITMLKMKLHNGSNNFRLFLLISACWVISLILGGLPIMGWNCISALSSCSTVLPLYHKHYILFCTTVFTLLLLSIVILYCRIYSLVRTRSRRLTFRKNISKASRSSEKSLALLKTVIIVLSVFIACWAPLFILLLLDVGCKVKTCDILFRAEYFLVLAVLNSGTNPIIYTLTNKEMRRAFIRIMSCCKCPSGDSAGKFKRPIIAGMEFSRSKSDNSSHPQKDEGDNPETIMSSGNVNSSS", "experiment": "Late stage counterscreen assay for S1P4 antagonists: Fluorescence dose response cell-based screening assay for antagonists of the Sphingosine 1-Phosphate Receptor 1 (S1P1). [Related pubchem assays (depositor defined):AID1510, AID1524, AID1692, AID1853, AID2332, AID489009, AID489017]", "assay_type": "functional"}, "[3]": {"biological_target": "Sphingosine 1-phosphate receptor 5 (Homo sapiens, UniProt Q9H228)", "sequence (Q9H228 whole entry)": "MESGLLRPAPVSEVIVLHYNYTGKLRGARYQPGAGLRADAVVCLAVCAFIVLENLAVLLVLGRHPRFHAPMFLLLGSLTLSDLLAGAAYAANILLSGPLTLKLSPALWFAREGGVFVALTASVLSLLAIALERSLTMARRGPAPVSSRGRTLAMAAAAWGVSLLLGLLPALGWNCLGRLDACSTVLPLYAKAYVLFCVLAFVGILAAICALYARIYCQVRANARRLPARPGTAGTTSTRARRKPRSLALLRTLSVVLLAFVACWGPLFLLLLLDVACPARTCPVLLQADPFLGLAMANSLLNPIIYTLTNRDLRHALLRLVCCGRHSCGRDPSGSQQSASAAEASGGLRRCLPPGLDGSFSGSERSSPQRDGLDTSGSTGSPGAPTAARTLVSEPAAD", "experiment": "Late stage counterscreen assay for S1P4 antagonists: Fluorescence dose response cell-based screening assay for antagonists of the Sphingosine 1-Phosphate Receptor 5 (S1P5). [Related pubchem assays (depositor defined):AID1510, AID1524, AID1692, AID1853, AID2332, AID489009, AID489017]", "assay_type": "functional"}, "[4]": {"biological_target": "Sphingosine 1-phosphate receptor 3 (Homo sapiens, UniProt Q99500)", "sequence (Q99500 whole entry)": "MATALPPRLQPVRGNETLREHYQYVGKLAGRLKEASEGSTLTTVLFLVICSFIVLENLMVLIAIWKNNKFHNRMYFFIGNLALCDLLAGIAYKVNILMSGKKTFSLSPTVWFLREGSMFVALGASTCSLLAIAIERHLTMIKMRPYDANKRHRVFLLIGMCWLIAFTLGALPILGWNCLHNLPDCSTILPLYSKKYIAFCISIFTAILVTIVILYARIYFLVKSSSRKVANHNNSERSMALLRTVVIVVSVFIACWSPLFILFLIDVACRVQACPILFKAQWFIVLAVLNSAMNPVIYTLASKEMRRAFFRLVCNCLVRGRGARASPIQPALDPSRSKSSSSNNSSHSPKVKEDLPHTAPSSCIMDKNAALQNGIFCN", "experiment": "Late stage counterscreen assay for S1P4 antagonists: Fluorescence dose response cell-based screening assay for antagonists of the Sphingosine 1-Phosphate Receptor 3 (S1P3). [Related pubchem assays (depositor defined):AID1510, AID1524, AID1692, AID1853, AID2332, AID489009, AID489017]", "assay_type": "functional"}, "[5]": {"biological_target": "T1, Sphingosine 1-phosphate receptor 4 (Homo sapiens, UniProt O95977)", "T1 sequence (O95977 whole entry)": "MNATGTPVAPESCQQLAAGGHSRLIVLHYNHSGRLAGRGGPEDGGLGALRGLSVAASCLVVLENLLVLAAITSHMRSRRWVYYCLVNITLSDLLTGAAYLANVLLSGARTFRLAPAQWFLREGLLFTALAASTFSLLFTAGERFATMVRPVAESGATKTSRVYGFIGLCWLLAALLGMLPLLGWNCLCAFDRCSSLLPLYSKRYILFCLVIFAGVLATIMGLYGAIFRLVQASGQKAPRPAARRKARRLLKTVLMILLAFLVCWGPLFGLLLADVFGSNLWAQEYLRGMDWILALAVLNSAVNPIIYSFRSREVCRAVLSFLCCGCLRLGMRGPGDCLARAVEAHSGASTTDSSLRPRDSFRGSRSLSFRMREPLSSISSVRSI", "experiment": "potency of S1P4 blockers – cell-based, fluorescence, synthesized analogues, late-stage follow-up (AID 2346)", "assay_type": "functional"}, "[6]": {"biological_target": "Sphingosine 1-phosphate receptor 2 (Homo sapiens, UniProt O95136)", "sequence (O95136 whole entry)": "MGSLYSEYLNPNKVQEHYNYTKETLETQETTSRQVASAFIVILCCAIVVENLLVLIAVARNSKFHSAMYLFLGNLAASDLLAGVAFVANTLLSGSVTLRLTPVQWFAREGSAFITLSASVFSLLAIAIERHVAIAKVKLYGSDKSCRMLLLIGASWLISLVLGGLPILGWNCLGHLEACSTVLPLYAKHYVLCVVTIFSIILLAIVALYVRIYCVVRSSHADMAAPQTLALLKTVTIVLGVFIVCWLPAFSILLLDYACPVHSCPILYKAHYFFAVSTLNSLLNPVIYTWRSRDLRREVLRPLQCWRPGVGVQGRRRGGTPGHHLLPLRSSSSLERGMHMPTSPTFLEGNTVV", "experiment": "Late stage counterscreen assay for S1P4 antagonists: Fluorescence dose response cell-based screening assay for antagonists of the Sphingosine 1-Phosphate Receptor 2 (S1P2). [Related pubchem assays (depositor defined):AID1510, AID1524, AID1692, AID1853, AID2332, AID489009, AID489017]", "assay_type": "functional"}, "[7]": {"biological_target": "26S proteasome non-ATPase regulatory subunit 14 (Homo sapiens, UniProt O00487)", "sequence (O00487 whole entry)": "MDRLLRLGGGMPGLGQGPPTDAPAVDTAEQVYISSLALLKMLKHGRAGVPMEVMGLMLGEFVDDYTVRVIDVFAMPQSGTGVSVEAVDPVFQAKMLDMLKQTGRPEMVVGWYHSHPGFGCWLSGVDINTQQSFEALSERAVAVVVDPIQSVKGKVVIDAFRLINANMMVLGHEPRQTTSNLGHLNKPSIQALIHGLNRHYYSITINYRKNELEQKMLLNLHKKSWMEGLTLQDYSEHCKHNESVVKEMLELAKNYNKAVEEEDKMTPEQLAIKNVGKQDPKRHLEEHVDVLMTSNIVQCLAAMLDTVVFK", "experiment": "inhibition of proteasome subunit RPN11 – biochemical, fluorescence polarization, uHTS hits, confirmation (AID 602368)", "assay_type": "functional"}, "Streptococcus": {"test_system": "Streptococcus", "experiment": "GAS UMAA2166 growth inhibition – luminescence, BacTiterGlo, counter-screen for streptokinase expression inhibitor project, dose response (AID 1915);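 note: potency for reduction of bacterial viability or growth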", "assay_type": "functional, organism-based"}, "[8]": {"biological_target": "Induced myeloid leukemia cell differentiation protein Mcl-1 (Homo sapiens, UniProt Q07820)", "sequence (Q07820 whole entry)": "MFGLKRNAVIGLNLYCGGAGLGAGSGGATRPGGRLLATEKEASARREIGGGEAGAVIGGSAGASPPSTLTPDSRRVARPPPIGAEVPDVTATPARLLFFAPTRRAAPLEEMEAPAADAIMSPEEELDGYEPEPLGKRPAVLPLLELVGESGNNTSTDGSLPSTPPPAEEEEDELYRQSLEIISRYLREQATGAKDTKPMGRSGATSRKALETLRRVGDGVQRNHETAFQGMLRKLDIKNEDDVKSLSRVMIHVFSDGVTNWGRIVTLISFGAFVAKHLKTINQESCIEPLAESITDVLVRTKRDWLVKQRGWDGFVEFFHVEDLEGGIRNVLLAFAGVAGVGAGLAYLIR", "assay_type": "functional"}, "Prothrombin": {"biological_target": "Prothrombin (Bos taurus, UniProt P00735)", "experiment": "thrombin protease inhibitors – biochemical, fluorescence polarization, uHTS hits, dose response (AID 602369)", "assay_type": "functional"}, "[9]": {"test_system": "Streptococcus sp. 'group A'", "experiment": "Streptococcus pyogenes SK(-)GAS viability under kanamycin – luminescence, BacTiterGlo, confirmation, counter-screen for streptokinase expression inhibitor project, dose response (AID 1900)", "assay_type": "functional, organism-based"}, "[10]": {"biological_target": "T2, Apoptotic protease-activating factor 1 (Homo sapiens, UniProt O14727)", "T2 sequence (O14727 whole entry)": "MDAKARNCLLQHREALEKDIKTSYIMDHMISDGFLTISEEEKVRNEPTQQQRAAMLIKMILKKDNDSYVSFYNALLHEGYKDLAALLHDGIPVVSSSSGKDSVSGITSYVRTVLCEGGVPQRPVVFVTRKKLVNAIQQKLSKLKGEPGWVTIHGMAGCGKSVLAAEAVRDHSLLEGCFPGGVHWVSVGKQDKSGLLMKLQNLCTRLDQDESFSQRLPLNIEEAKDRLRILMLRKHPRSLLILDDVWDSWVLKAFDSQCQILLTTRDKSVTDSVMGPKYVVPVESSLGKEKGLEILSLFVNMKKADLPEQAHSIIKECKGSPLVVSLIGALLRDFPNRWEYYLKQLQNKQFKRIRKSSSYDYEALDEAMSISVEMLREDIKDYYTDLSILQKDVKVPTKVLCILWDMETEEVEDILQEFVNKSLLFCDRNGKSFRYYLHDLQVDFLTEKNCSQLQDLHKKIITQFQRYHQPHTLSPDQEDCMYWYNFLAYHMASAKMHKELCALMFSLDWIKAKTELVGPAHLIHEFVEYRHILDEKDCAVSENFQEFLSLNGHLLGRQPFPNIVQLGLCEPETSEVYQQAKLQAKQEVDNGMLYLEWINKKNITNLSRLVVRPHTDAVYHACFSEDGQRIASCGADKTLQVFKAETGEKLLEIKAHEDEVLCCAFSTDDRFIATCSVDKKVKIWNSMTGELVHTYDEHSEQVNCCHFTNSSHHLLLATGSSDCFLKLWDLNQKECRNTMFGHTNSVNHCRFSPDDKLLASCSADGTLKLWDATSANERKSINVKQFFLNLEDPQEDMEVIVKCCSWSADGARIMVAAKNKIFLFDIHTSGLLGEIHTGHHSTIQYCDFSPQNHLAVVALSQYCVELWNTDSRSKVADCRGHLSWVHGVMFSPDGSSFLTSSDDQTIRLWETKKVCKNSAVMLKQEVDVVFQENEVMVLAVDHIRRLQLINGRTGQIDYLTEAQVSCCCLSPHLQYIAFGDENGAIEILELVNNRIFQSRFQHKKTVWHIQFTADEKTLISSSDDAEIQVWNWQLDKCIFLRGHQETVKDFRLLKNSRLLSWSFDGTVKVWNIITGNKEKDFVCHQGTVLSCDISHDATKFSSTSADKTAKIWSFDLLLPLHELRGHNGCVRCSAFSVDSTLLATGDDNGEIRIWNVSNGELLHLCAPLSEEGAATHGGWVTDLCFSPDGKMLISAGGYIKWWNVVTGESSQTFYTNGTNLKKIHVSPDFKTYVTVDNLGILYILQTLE", "experiment": "activation of Apaf-1 mediated apoptosis – fluorescent, uHTS hits, dose response (AID 588554)", "assay_type": "functional"}, "[11]": {"biological_target": "72 kDa type IV collagenase (Homo sapiens, UniProt P08253)", "sequence (P08253 whole entry)": "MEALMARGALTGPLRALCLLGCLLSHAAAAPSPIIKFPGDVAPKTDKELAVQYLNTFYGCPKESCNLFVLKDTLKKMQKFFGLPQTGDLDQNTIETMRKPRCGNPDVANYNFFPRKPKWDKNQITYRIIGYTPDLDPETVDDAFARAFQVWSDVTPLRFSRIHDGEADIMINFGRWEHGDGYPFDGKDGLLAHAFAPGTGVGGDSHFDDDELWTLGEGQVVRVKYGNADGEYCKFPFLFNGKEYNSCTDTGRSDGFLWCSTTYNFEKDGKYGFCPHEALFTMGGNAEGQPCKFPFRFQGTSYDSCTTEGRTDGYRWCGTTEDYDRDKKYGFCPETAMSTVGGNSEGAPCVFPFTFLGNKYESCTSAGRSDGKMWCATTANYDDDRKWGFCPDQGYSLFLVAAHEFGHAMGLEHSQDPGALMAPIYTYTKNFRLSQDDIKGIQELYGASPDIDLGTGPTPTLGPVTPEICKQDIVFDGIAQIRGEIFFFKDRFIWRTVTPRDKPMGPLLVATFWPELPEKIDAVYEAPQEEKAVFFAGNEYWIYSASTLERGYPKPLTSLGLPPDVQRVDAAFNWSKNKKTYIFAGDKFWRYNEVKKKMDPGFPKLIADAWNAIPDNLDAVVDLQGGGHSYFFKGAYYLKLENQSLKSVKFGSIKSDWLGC", "experiment": "Dose Response validation of uHTS RPN11 inhibitor hits using a MMP-2 Fluorescence assay.", "assay_type": "functional"}, "[12]": {"biological_target": "Dual specificity protein phosphatase 3 (Homo sapiens, UniProt P51452)", "sequence (P51452 whole entry)": "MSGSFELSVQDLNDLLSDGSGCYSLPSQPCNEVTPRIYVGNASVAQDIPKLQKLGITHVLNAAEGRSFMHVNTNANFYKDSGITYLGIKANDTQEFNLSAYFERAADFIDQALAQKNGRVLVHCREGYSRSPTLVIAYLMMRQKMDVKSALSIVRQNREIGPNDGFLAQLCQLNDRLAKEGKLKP", "experiment": "SAR VHR1 Fluorescent Assay for In Vitro dose response studies Set 3. [Related pubchem assays (depositor defined):AID1654, AID1661, AID1878]", "assay_type": "functional"}, "Candida albicans [13]": {"test_system": "Candida albicans", "experiment": "fluconazole-resistant Candida strain growth inhibitors – CaCi-8 strain, dry powder, set 4, dose response (AID 488950)", "assay_type": "functional, organism-based"}, "NIH3T3": {"test_system": "NIH3T3", "experiment": "mammalian cell viability counter-check – Alamar Blue, fluconazole, dry powder, cytotoxicity control for antifungal drug resistance project, dose response (AID 488809)", "assay_type": "functional, cell-based", "conditions": "Mus musculus"}, "Candida albicans [14]": {"test_system": "Candida albicans", "experiment": "antifungal activity against resistant Candida strain – CaCi-8, fluconazole, Alamar Blue, dry powder, dose response (AID 488807)", "assay_type": "functional, organism-based"}, "[15]": {"biological_target": "Heat shock protein HSP 90-alpha (Homo sapiens, UniProt P07900)", "experiment": "Luminescence-based dose response biochemical high throughput screening assay for inhibitors of the Heat Shock Protein 90 (HSP90). [Related pubchem assays: 1831 (Summary AID.), 1846 (Confirmation screen.), 1789 (Primary screen.)]"}, "[16]": {"biological_target": "Luciferin 4-monooxygenase (Photuris pensylvanica, UniProt Q27757)", "sequence (Q27757 whole entry)": "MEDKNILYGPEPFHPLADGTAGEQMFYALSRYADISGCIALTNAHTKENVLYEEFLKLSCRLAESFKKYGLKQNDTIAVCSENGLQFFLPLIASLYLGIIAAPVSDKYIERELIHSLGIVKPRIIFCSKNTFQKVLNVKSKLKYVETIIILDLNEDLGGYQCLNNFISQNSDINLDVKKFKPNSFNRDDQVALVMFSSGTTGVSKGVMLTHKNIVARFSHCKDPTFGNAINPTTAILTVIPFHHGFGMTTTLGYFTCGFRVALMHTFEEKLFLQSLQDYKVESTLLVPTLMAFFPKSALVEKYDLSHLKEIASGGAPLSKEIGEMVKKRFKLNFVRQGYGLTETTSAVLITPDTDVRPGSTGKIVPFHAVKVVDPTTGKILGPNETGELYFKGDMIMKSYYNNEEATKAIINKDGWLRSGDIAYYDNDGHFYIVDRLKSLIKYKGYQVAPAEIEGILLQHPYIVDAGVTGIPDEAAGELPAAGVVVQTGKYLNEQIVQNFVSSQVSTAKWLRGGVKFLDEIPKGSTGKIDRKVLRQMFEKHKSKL", "experiment": "inhibition of Cell Titer Glo luciferase signal – biochemical, luminescence, cherry-picks, counter-screen for HSF-1 reporter inhibitor project, dose response (AID 588847)"}}, "note": "Activity calls are given as the source filed them.", "data": [{"smiles": "Cc1ccccc1NC(=O)CCS(=O)(=O)c1ccc(Br)cc1", "values": [{"measurement": "EC50", "setting": "[1]", "value": "11.4 µM (active)"}]}, {"smiles": "CCc1cccc(C)c1NC(=O)c1ccc(-c2ccccc2Cl)o1", "values": [{"measurement": "IC50", "setting": "[2]", "value": "> 25 µM (inactive)"}, {"measurement": "IC50", "setting": "[3]", "value": "> 25 µM (inactive)"}, {"measurement": "IC50", "setting": "[4]", "value": "> 25 µM (inactive)"}, {"measurement": "IC50", "setting": "[5]", "value": "0.269 µM (active)"}, {"measurement": "IC50", "setting": "[6]", "value": "> 25 µM (inactive)"}]}, {"smiles": "O=C(O)CCCN1C(=O)/C(=C\\c2ccc(-c3nc4ccccc4s3)o2)SC1=S", "values": [{"measurement": "IC50", "setting": "[7]", "value": "5.31 µM (active)"}, {"measurement": "EC50", "setting": "Streptococcus", "value": "7.32 µM (active)"}, {"measurement": "IC50", "setting": "[8]", "value": "1.38 µM (active)"}, {"measurement": "IC50", "setting": "Prothrombin", "value": "70.3 µM (active)"}, {"measurement": "EC50", "setting": "[9]", "value": "3.67 µM (active)"}, {"measurement": "EC50", "setting": "[10]", "value": "5.12 µM (active)"}, {"measurement": "IC50", "setting": "[11]", "value": "> 100 µM (inactive)"}]}, {"smiles": "COc1cccc2sc(NC(=O)c3ccc(C#N)cc3)nc12", "values": [{"measurement": "IC50", "setting": "[12]", "value": "57.6 µM (active)"}]}, {"smiles": "O=C(C1CC1)N1CCN(c2ccnc3cc(Cl)ccc23)CC1", "values": [{"measurement": "AC50", "setting": "Candida albicans [13]", "value": "12.4 µM (active)"}, {"measurement": "AC50", "setting": "NIH3T3", "value": "1.7 µM (active)"}, {"measurement": "AC50", "setting": "Candida albicans [14]", "value": "3.25 µM (active)"}]}, {"smiles": "CC(C)Sc1nc(SCC(=O)NCc2ccco2)c2c3c(sc2n1)COC(C)(C)C3", "values": [{"measurement": "IC50", "setting": "[15]", "value": "8.37 µM (active)"}, {"measurement": "AC50", "setting": "[16]", "value": "> 52 µM (inactive)"}]}]}
